Test results as given in patent publication US6384188B1, “Lipopolysaccharide-binding and neutralizing peptides” (Dana-Farber Cancer Institute, Inc., priority 1993, dated 2002).
Bridge positions count the residues as written; N and C are the ends. Peptide text beside a SMILES is read from it. * marks the point of attachment. Biotin = O=C1N[C@H]2[C@H](CS[C@H]2CCCCC(=O)*)N1

Columns and labels:
[1] = LPS binding as determined by ELISA (general description); set-up: species or system E. coli
Excerpt: (§1) In a still further preferred embodiment, the present invention provides for peptides which effectively bind to LPS and are constrained to adopt a circular conformation by an intramolecular bridge. In this context, the circular conformation can be brought about by any one of a number of intramolecular bridges. Preferably, the peptide may incorporate two cysteine residues between which a disulfide bond is formed by an oxidation reaction. Alternatively, the two cysteines may be linked through a homo-bifunctional cross-linking reagent, such as a bis-maleimide. Particularly preferred are the cyclic peptides comprising amino acids 31 to 52 and amino acids 38 to 45 of LALF, each stabilized by a disulfide bond formed between two cysteine residues, producing a cyclic conformation (FIG. 2). […] This defines a minimal LPS-binding domain to be the peptide spanning amino acids 38 to 45 of LALF. […] Thus, particularly preferred are also the peptides spanning amino acids 90 to 101 and amino acids 90 to 97 of LBP (FIG. 3). […] This defines a second minimal LPS binding domain to be the peptide spanning amino acids 90 to 97 of LBP. […] Particularly preferred are the peptides spanning amino acids 90 to 97 and amino acids 90 to 101 of BPI (FIG. 4). This defines a third minimal LPS-binding domain to be the peptide spanning amino acids 90 to 97 of BPI.

[2] = test system: LALF binding to immobilized lipid A; experiment: Influence of serum on the competition of LALF:lipid A binding by peptide; conditions: 100 μg/ml peptide, 10% fetal calf serum; FIG. 18
Procedure: To investigate the specificity of peptides in binding lipid A and LPS, competition experiments with known endotoxin binding proteins such as LALF and LBP and the antibiotic polymyxin B are carried out. Thus an ELISA plate (NUNC, Polysorp 96U) is coated for 90 min. at 37° C. with 100 μl lipid A in PBS (0.25-0.3 μg/ml) or lipopolysaccharide in PBS (0.25-0.3 μg/ml). All further steps are done at room temperature. After washing and blocking (10 min.) with PBS/0.1% Tween, the solid phase is incubated for 1 hr with 100 μl or increasing amounts (0.01 μg/ml-100 μg/ml in PBS/0.1% Tween) of unlabelled or biotin-labelled peptides mixed with an endotoxin binding protein (LALF or LBP; 0.2 μg/ml in PBS/0.1% Tween). After washing with PBS/0.1% Tween, the ELISA plate is incubated for 45 min. with 100 μl of a rabbit antiserum against LALF or LBP, respectively. After washing with PBS/0.1% Tween the ELISA plate is incubated with 100 μl anti-rabbit antibody conjugated to alkaline phosphatase (SIGMA; 1:10000 diluted in PBS/0.1% Tween) and washed with PBS/0.1% Tween and 100 mM Tris pH 9.5. p-Nitrophenyl-phosphate (2 mg/ml in 100 mM Tris pH 9.5) is used as a substrate for alkaline phosphatase. The ELISA is read at 405 nm. […]

[3] = Chromogenic Limulus amebocyte lysate test; assay type: biochemical, E. coli; conditions: peptides 0.1-10 μg/ml preincubated with LPS 15 min at 37° C.; FIG. 19
Procedure: (§2) The Limulus amebocyte Lysate test (gelling assay; sensitivity 0.125 EU/ml) and the Chromogenic Limulus amebocyte Lysate test (sensitivity 0.06 EU/ml) are performed according to the manufacturer's instruction (Bio*Whittaker, Walkersville, Md.) using E. coli 055:B5 lipopolysaccharide. For neutralisation of LPS, peptides (0.1-10 μg/ml) and LPS are incubated for 15 min. at 37° C. and then added to the Limulus lysate. […] The chromogenic assay allows quantification of the lipopolysaccharide neutralizing capacity of the peptides.

[4] = test system: LALF binding to immobilized lipid A; experiment: Competition of LALF:lipid A binding by peptides (ELISA)
Procedure: (§3) To investigate the specificity of peptides in binding lipid A and LPS, competition experiments with known endotoxin binding proteins such as LALF and LBP and the antibiotic polymyxin B are carried out. Thus an ELISA plate (NUNC, Polysorp 96U) is coated for 90 min. at 37° C. with 100 μl lipid A in PBS (0.25-0.3 μg/ml) or lipopolysaccharide in PBS (0.25-0.3 μg/ml). All further steps are done at room temperature. After washing and blocking (10 min.) with PBS/0.1% Tween, the solid phase is incubated for 1 hr with 100 μl or increasing amounts (0.01 μg/ml-100 μg/ml in PBS/0.1% Tween) of unlabelled or biotin-labelled peptides mixed with an endotoxin binding protein (LALF or LBP; 0.2 μg/ml in PBS/0.1% Tween). After washing with PBS/0.1% Tween, the ELISA plate is incubated for 45 min. with 100 μl of a rabbit antiserum against LALF or LBP, respectively. After washing with PBS/0.1% Tween the ELISA plate is incubated with 100 μl anti-rabbit antibody conjugated to alkaline phosphatase (SIGMA; 1:10000 diluted in PBS/0.1% Tween) and washed with PBS/0.1% Tween and 100 mM Tris pH 9.5. p-Nitrophenyl-phosphate (2 mg/ml in 100 mM Tris pH 9.5) is used as a substrate for alkaline phosphatase. The ELISA is read at 405 nm.

[5] = test system: biotin-labelled LBP-14 binding to immobilized lipid A; experiment: Competition of LBP14:lipid A binding by peptides and proteins (ELISA); conditions: unlabelled competitor in increasing amounts, biotin-LBP-14 1 μg/ml; FIG. 16; very similar result with LALF-14
Procedure: An ELISA plate (NUNC, Polysorp 96U) is coated for 90 min. at 37° C. with 100 μl lipid A in PBS (0.2-0.3 μg/ml). All further steps are done at room temperature. After washing and blocking (10 min.) with PBS/0.1%. Tween, the solid phase is incubated for 1 hr with 100 μl of increasing amounts (0.01 μg/ml-10 μg/ml) of unlabelled peptides or proteins mixed with a biotin-labelled peptide (1 μg/ml in PBST/0.1% Tween). After washing with PBS/0.1% Tween, 100μl streptavidin conjugated to alkaline phosphatase (Boehringer Mannheim GmbH, 1:10000 diluted in PBS/0.1% Tween) is added to the wells. This incubation is followed by washing with PBS/0.1% Tween and 100 mM Tris pH 9.5. p-Nitrophenyl-phosphate (2 mg/ml in 100 mM Tris pH 9.5) is used as a substrate for alkaline phosphatase. The ELISA is read at 405 nm.
CD14 is used to compete the peptide-lipid A binding. The principle of such a binding assay is the same as for the LALF- or LBP-lipid A competition assays in which a constant amount of detectable peptide or protein is competed by an increasing amount of another peptide or protein. Instead of detecting LALF, bound biotin-labelled peptide is detected with streptavidin conjugated to alkaline phosphatase, and the labelled peptide concentration is kept constant while the unlabelled peptide or protein amount is increased. […] A very similar result is observed when LALF-14 is used instead of LBP-14.

[6] = ELISA binding of biotinylated peptides to immobilized lipid A; conditions: biotinylated peptide 0.1-10 μg/ml on immobilized lipid A; FIG. 8, 9
Procedure: The lipid A-binding activities of the peptides are shown in an ELISA format as follows. An ELISA plate (NUNC, Polysorp 96U) is coated for 90 minutes at 37° C. with 100 μl lipid A in PBS (0.25-1 μg/ml). All further steps are done at room temperature. After washing and blocking (10 min.) with PBS/0.1% Tween, the solid phase is incubated for 1 hour with 100 μl of increasing amounts (0.1 μg/ml-10 μg/ml) of purified synthetic peptides (dissolved in PBST) labelled at the N-terminus with biotin. After washing with PBS/0.1% Tween, the bound peptides are incubated for 45 min. with 100 μl streptavidin conjugated to alkaline phosphatase (Boehringer Mannheim GmbH; 1:10000 diluted in PBS/0.1% Tween), followed again by washing with PBS/0.1% Tween and 100 mM Tris pH 9.5. p-Nitrophenylphosphate (2 mg/ml in 100 mM Tris pH 9.5) is used as a substrate for alkaline phosphatase. The ELISA is read at 405 nm.
To investigate the importance of the constrained conformation for high affinity peptide-lipid A binding, binding activity of cyclic and the corresponding linear peptides is compared.

[7] = Binding of fluorescein-labelled LPS to biotinylated peptides immobilized via streptavidin; set-up: species or system Salmonella enteriditis; conditions: peptide 1 or 10 μg/ml on streptavidin plate, FITC-LPS 0.5 μg/ml; FIG. 12
Procedure: To investigate the potential use of multimeric peptides for increasing the binding to LPS, individual peptides are coated on an ELISA plate to high surface concentrations. Immobilization is performed by first coating the plate with strepravidin and then binding the peptides via their N-terminal biotin groups. Thus, 100 μl streptavidin (Boehringer Mannheim GmbH; 10 μg/ml in PBS) is used for coating followed by washing, blocking (10 min.) with PBS/0.1% Tween and a 30 min. incubation with 100 μl of purified synthetic peptides (1 μg/ml or 10 μg/ml in PBST) labelled at the N-terminus with biotin. After washing with PBS/0.1% Tween the peptides are incubated for 1 hr With FITC-labelled LPS (SIGMA; Salmonella enteriditis; 0.5 μg/ml in PBS/0.1% Tween). After washing with PBS/0.1% Tween, the ELISA plate is incubated with 100 μl of an anti-FITC antibody conjugated to alkaline phosphatase (SIGMA; 1:2500 diluted in PBS/0.1% Tween) and washed with PBS/0.1% Tween and 100 mM Tris pH 9.5. p-Nitrophenyl-phosphate (2 mg/ml in 100 mM Tris pH 9.5) is used as a substrate for alkaline phosphatase. The ELISA is read at 405 nm. All steps are done at room temperature.

[8] = test system: monocytes (LPS Re-LPS F515 induced TNF release); experiment: Inhibition of LPS-mediated TNF release by monocytes; assay type: cell-based, human; conditions: peptide 10 μg/ml preincubated with LPS; TNF by ELISA; FIG. 20
Procedure: Monocytes are purified with a ficoll gradient (d=1.077) from whole blood by centrifugation for 20 min. at 2200 rpm at room temperature. Ficoll is removed by washing 3 times with PBS. Purified monocytes are counted and diluted to 2×10^6 cells/900 μl in medium (RPMI+) or medium with 0.1%-10% human serum. For TNF induction, 2×10^6 monocytes (in 900 μl medium or medium with serum) and 100 μl of LPS (Re-LPS F515; 0.1 ng/ml-10 ng/ml) or mixtures of LPS with peptides (10 μg/ml) (preincubated for 15 min. at 37° C.) are incubated in a 24 well plate (NUNC) for 2 to 5 hr. The supernatant is taken off and spun twice for 2 min. at 1500 rpm, once for 5 min. at 15000 rpm and stored at −20° C. for TNF determination. The induced TNF is assayed by ELISA according to the manufacturer's instruction (BioSource International, California) using a 50 μl sample of thawed supernatant.

[9] = Limulus amebocyte lysate test (gelling assay); assay type: biochemical, E. coli; conditions: peptides 0.1-10 μg/ml preincubated with LPS 15 min at 37° C.; FIG. 19
Procedure: as §2

[10] = test system: LBP binding to immobilized lipid A; experiment: Competition of LBP:lipid A binding by peptides (ELISA); conditions: 100 μg/ml peptide; FIG. 15
Procedure: as §3
The ability of the peptides to compete with LBP for binding to LPS is determined in the same way as in Example 5, except that LALF is replaced with LBP (see FIG. 15). […]

[11] = LPS binding as shown by ELISA (general description); conditions: FIG. 2-7 peptides
Excerpt: as §1

[12] = peptide 0.01-100 μg/ml, LALF 0.2 μg/ml, FIG. 13, 14

For CC[C@H](C)[C@@H]1NC(=O)[C@H](CCCNC(=N)N)NC(=O)[C@H](Cc2ccc(O)cc2)NC(=O)[C@H](Cc2c[nH]cn2)NC(=O)[C@@H](N)CSSC[C@@H](C(=O)O)NC(=O)[C@H](Cc2c[nH]c3ccccc23)NC(=O)[C@H](Cc2ccccc2)NC(=O)[C@H](CCCCN)NC(=O)CNC(=O)[C@H](CCCCN)NC(=O)[C@H](Cc2ccc(O)cc2)NC(=O)[C@H](CCCCN)NC(=O)[C@H](Cc2c[nH]c3ccccc23)NC(=O)[C@H](CCCCN)NC(=O)[C@H](CC(C)C)NC(=O)[C@H](CCCNC(=N)N)NC(=O)[C@H](CCCNC(=N)N)NC(=O)[C@H](Cc2ccccc2)NC(=O)[C@H]([C@@H](C)O)NC(=O)[C@@H]2CCCN2C(=O)[C@H](CCCCN)NC1=O [amino acids 31 to 52 of LALF] (H-CHYRIKPTFRRLKWKYKGKFWC-OH; disulfide 1-22; N-terminus and C-terminus assumed), the “binding to E. coli EH 100 LPS as determined by ELISA” value [1] was “Both bind lipid A and, additionally, two different types of LPS-molecules”.

For “I-K-T-K-K-F-L-K-K-T (IKTKKFLKKT) [PolP-1]”, the “competition with LALF for lipid A binding in the presence of 10% serum” value [2] was “only inhibit slightly above background”, the “inhibition of the chromogenic Limulus amebocyte lysate assay” value [3] was “up to 25%” and the “competition with LALF for lipid A binding” value [4, 12] was “hardly competes with LALF for lipid A binding”. For the same compound, the “competition of LBP-14 binding to lipid A” value [5] was “only slightly above the background determined by lysozyme as competitor”.

For “Biotin-Z-K-C-F-T-R-R-A-K-W-R-C (Z=β-alanine) [MS-21]”, the “lipid A-binding activity (ELISA)” value [6] was “binds lipid A weaker than LALF-14 and LBP-14, but slightly better than BPI-14”, the “competition with LALF for lipid A binding” value ([4]; at 100 μg/ml peptide, FIG. 14) was ~80% and the “binding of FITC-labelled LPS to immobilized peptide” value [7] was “highest binding affinity to LPS”.

For CC(C)C[C@@H]1NC(=O)[C@H](CCCNC(=N)N)NC(=O)[C@H](CCCNC(=N)N)NC(=O)[C@H](Cc2ccccc2)NC(=O)[C@H]([C@@H](C)O)NC(=O)[C@@H](NC(=O)CCCC[C@@H]2SC[C@@H]3NC(=O)N[C@@H]32)CSSC[C@@H](C(=O)O)NC(=O)[C@H](CCCCN)NC(=O)[C@H](Cc2c[nH]c3ccccc23)NC(=O)[C@H](CCCCN)NC1=O [LALF-10] (Biotin-CTFRRLKWKC-OH; disulfide 1-10), the “binding to E. coli EH 100 LPS as determined by ELISA” value [1] was “Both bind lipid A and, additionally, two different types of LPS-molecules”.

For polymyxin B, the “competition with LALF for lipid A binding in the presence of 10% serum” value [2] was “also inhibiting in the presence of 10% serum”, the “inhibition of TNF release” value [8] was 95% and the “inhibition of LPS-mediated gelling of Limulus amebocyte lysate” value [9] was “inhibit the assays”. For the same compound, the “competition with LALF for lipid A binding” value [4, 12] was “able to displace LALF almost completely from immobilized lipid A”, the “competition of LBP-14 binding to lipid A” value [5] was “only weak competition activity at the highest concentration used” and the “competition with LBP for lipid A binding” value [10] was “not able to compete with LBP for binding to lipid A”.

With “amino acids 90 to 97 of BPI: peptide spanning amino acids 90 to 97 of BPI, cyclic by disulfide bond between two cysteines” the “binding to LPS as shown by ELISA” value [11] was “able to bind LPS”.

For lysozyme, the “competition with LALF for lipid A binding” value ([4]; at 100 μg/ml peptide, FIG. 14) was 10%, the “competition with LALF for lipid A binding” value [4, 12] was “not able to compete with LALF” and the “competition of LBP-14 binding to lipid A” value [5] was “background determined by lysozyme as competitor”.

For “Biotin-Z-C-K-W-K-I-R-K-F-S-C-N (Z=β-alanine) [MS-22]”, the “lipid A-binding activity (ELISA)” value [6] was “binds lipid A clearly above background level and with a similar activity to LBP-10-1, but weaker than MS-21”.
